{
  "source": "patent US12616753B2",
  "about": "“HSP70 inhibitors and methods of using same” (THE WISTAR INSTITUTE, priority 2020, dated 2026)",
  "key": {"[1]": {"system": "CRC cell lines (SW620, HT-29, HCT 116+/−p53, RKO, and LS411N)", "experiment": "Alamar Blue cell viability assay, human CRC panel", "assay_type": "cell-based", "conditions": "Homo sapiens; 72 hours; read-out: IC50, cytotoxicity in all CRC cell lines", "procedure": "(§1) FIGS. 4A-4F show AP-4-139B is efficacious as a single agent against human CRC in vitro and in vivo. FIG. 4A: Three CRC cell lines (HT-29, LS411N, and SW620) were treated with 10 μM of PET-16 or AP-4-139B for 48 hours. Cell were then subjected to viability assays using Trypan Blue exclusion. *** p<0.001. […] FIGS. 4B-4C: A panel of six CRC cell lines (SW620, HT-29, HCT 116+/−p53, RKO, and LS411N) were plated at a density of 1,000 cells per well in 96-well plates. The next day, cells were treated with the indicated inhibitors for 72 hours. Cells were then subjected to the Alamar Blue cell viability assays. Shown are representative IC50 values of an average of six technical replicates and two biological replicates. FIG. 4D: 2.5×10^6 HT-29 cells were injected subcutaneously into the right flank of NSG mice. Once tumors reached an approximate volume of 100 mm^3, mice were separated randomly into two groups: control vs. AP-4-139B. Mice were treated with 12.5 mg/kg AP-4-139B three times a week. All mice were euthanized 22 days after the start of treatment. Tumor volumes were recorded using digital calipers and using the formula v=length×width^2×0.52. *** p<0.001. n=10 mice per group. FIG. 4E: Immunohistochemistry (IHC) analysis of HT-29 xenograft tumors treated with AP-4-139B. Shown are representative images (4-6 random fields of view per condition) of Ki67 (proliferation) and Cleaved Lamin A (cell death). n=4 mice per group. Scale bar=100 μm. Respective IgG antibody was used as the negative control."}, "[2]": {"target": "N-terminal HIS tagged HSP70 (Homo sapiens, UniProt P0DMV8)", "sequence (P0DMV8 whole entry)": "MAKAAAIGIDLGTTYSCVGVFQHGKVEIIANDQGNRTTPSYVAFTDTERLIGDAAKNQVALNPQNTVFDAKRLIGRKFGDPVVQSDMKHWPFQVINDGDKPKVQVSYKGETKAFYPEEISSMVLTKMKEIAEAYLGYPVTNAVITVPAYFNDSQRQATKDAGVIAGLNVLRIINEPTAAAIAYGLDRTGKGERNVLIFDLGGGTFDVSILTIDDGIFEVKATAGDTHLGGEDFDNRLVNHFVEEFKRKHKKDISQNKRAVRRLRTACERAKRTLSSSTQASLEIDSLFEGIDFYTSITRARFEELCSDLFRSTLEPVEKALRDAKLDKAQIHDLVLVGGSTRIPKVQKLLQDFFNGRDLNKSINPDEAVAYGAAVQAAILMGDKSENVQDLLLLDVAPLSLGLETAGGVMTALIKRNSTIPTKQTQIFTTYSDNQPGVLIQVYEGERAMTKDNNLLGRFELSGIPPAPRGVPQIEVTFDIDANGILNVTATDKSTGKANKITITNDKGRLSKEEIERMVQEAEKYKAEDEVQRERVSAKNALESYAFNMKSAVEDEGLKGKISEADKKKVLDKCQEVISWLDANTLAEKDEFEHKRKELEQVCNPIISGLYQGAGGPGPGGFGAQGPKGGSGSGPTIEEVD", "experiment": "Small molecule binding to HSP70 using SPR (Biacore T200)", "procedure": "SPR experiments were conducted using the Biacore T200. Approximately 20,000 RU of N-terminal HIS tagged HSP70 was immobilized on a multi-dentate NTA derivatized linear carboxylate sensor chip (NICH1500M, Xantec Bioanalytics). The running buffer was PBS containing 2 mM MgCl2, 0.05% Tween, and 5% DMSO. Test compounds were diluted at 20× final concentration in 100% DMSO and then diluted into running buffer without DMSO so that the DMSO concentrations in both the sample and the running buffer were similar. Flow rate was 30 μL/min, contact time for each sample concentration was 30 seconds, followed by a 60 second dissociation time. Data were analyzed using the Biacore evaluation software and the resulting sensograms exported and re-plotted in GraphPad Prism.\nThe next studies sought to determine whether AP-4-139B interacts directly with HSP70. To accomplish this, full-length His-tagged human HSP70 was used, and it was immobilized on a high affinity poly-Ni-NTA sensor chip for surface plasmon resonance experiments on a Biacore T200. This HSP70-loaded chip was incubated with AP-4-139B or the negative control VY-3-277. As a positive control the adenosine-derived HSP70 inhibitor Ver-155008 was used (Massey et al., Cancer Chemother Pharmacol. 2010 August; 66(3):535-45)."}, "MC38 cells [3]": {"system": "MC38 cells", "experiment": "Anti-tumor vaccination study in C57BL/6 mice", "assay_type": "in vivo, mouse", "procedure": "FIG. 25A: C57Bl/6 mice were injected with either PBS or AP-4-139B pre-treated MC38 cells into the left flank. 10 days later, the same mice were injected with untreated MC38 cells in the right flank. […] Log rank test p<0.0001. FIG. 25B: Tumor growth measured in mice in FIG. 25A over 25 days. n=15 mice per group. Wilcox rank-sum test p<0.0001.\n(§2) For in vivo metastasis assays, 8-10 week old male C57Bl/6 mice were injected with 4×10^5 MC38 cells. Mice were then treated with either vehicle or 10 mg/kg AP-4-139B every 48 hours for 3 weeks. At the end of the study, mice were euthanized, lungs were harvested and fixed in formalin for analysis of lung tumor nodules by H&E. For anti-tumor vaccination studies, MC38 cells were treated with 10 μM AP-4-139B for 48 h, resulting in approximately 20% cell death (as assessed by Trypan Blue staining). 2×10^6 pre-treated MC38 cells or PBS was inoculated subcutaneously into the left flank of 8-10 week old male C57BL/6 mice. Ten days later, mice were challenged on the right flank with 5×10^5 live MC38 cells, and tumor growth and incidence were monitored 3 times per week. The absence of tumors was scored as an indication for efficient antitumor vaccination."}, "MC38 cells [4]": {"system": "MC38 cells", "experiment": "Cell death of MC38 cells pre-treated for vaccination (Trypan Blue staining)", "assay_type": "cell-based, mouse", "conditions": "10 μM, 48 h", "procedure": "as §2"}, "HT-29 tumor xenografts": {"system": "HT-29 tumor xenografts", "experiment": "HT-29 tumor xenograft in NSG mice", "assay_type": "in vivo", "conditions": "12.5 mg/kg three times per week", "procedure": "as §1\nFIGS. 8A-8E show HSP70 inhibition is effective on mouse CRC cell lines. FIG. 8A: Association of HSPA1A gene expression and survival rate of patients with colorectal adenocarcinoma (COAD). Patient data was gathered from USCS Xena platform (GDC-TCGA COAD; n=435). Log-rank test was used to determine significance. p=0.0004. FIG. 8B: Association of HSPA1A gene expression and stage of COAD (n=440). Wilcoxon rank sum test was used to determine significance. * p<0.05, *** p<0.001. FIG. 8C: Body weights of mice injected with HT-29 tumor xenografts. Weights were measured at the start of the treatment to determine mouse toxicity. n.s. not significant, n=10 mice per group. FIG. 8D: H&E staining of livers and colons of mice injected with HT-29 tumor xenografts. Tissues were collected at the end of the study. FIG. 8E. Pharmacokinetic values of AP-4-139B in the liver, plasma, and brain from three CDI mice treated with 10 mg/kg of compound.\nShown are representative images of COXIV and a-SMA. n=5 mice per group. Scale bar=100 μm.\nAll studies were carried out in accordance with the recommendations in the Guide for the Care and Use of Laboratory Animals of the National Institutes of Health (NIH). All protocols were approved by The Wistar Institute Institutional Animal Care and Use Committee (IACUC). Mice were housed in plastic cages with ad libitum diet and maintained with a 12-hour dark/12-hour light cycle at 22° C. For human xenograft studies, 2.5×10^6 HT-29 cells were injected subcutaneously into the right flanks of 6-8 week old male NSG (NOD.Cg-Prkdcscid II2rgtm1 Wjl/SzJ) mice. For mouse xenograft studies, 1×10^6 MC38 cells were subcutaneously into the right flanks of 6-8 week old male C57Bl/6J mice. Tumor volumes were measured using digital calipers and tumor volume was calculated using the formula: volume=(length×width^2)×0.52. All mice were monitored daily for signs of pain or distress."}},
  "data": [
    {"compound": "c1ccc(-c2cn3nc(CCCCCC[P+](c4ccccc4)(c4ccccc4)c4ccccc4)sc3n2)cc1", "note": "[AP-4-139B, Triphenyl(6-(6-phenylimidazo[2,1-b][1,3,4]thiadiazol-2-yl)hexyl)phosphonium bromide]", "values": [
      {"measurement": "IC50", "setting": "[1]", "result": "1500 to 3000", "unit": "nM"},
      {"measurement": "binding to sensor chips loaded with HSP70", "setting": "[2]", "result": "reproducibly bound in concentration-dependent manner"},
      {"measurement": "tumor size in vaccine-treated mice", "setting": "MC38 cells [3]; over 25 days", "result": "markedly reduced compared with control"},
      {"measurement": "mice that developed tumors on the right flank", "setting": "MC38 cells [3]; vaccinated with pre-treated MC38 cells, control 15 of 15", "result": "3 of 15"},
      {"measurement": "cell death of MC38 cells", "setting": "MC38 cells [4]", "result": "approximately 20%"},
      {"measurement": "Ki-67 staining in tumors", "setting": "HT-29 tumor xenografts", "result": "reduced staining for Ki-67"},
      {"measurement": "cleaved lamin A staining in tumors (apoptosis)", "setting": "HT-29 tumor xenografts", "result": "increased staining for cleaved lamin A"},
      {"measurement": "loss of mitochondria in treated tumors (COX IV staining)", "setting": "HT-29 tumor xenografts", "result": "No evidence was found that AP-4-139B caused obvious loss of mitochondria"},
      {"measurement": "progression of HT-29 tumor xenografts", "setting": "HT-29 tumor xenografts", "result": "significantly reduced the progression of HT-29 tumor xenografts"},
      {"measurement": "toxicity (weight loss, liver or colon architecture)", "setting": "HT-29 tumor xenografts", "result": "No evidence for toxicity"}
    ]}
  ]
}
